# Assay results: patent US11542240B2, “STK19 inhibitors for treatment of cancer” (TRUSTEES OF BOSTON UNIVERSITY, priority 2018, dated 2023)
# How the values were obtained:
# Experiment in all cases: biochemical
# Assay type in all cases: binding
# [1] = target: panel of 468 diverse kinases (Homo sapiens, UniProt O43353); settings: RIPK2; 1000 nM; read-out: Percent Control
# [2] = target: panel of 468 diverse kinases (Homo sapiens, UniProt O95382); settings: ASK2; 1000 nM; read-out: Percent Control
# [3] = target: panel of 468 diverse kinases (Homo sapiens, UniProt P10721, A829P); settings: KIT(A829P); 1000 nM; read-out: Percent Control
# [4] = target: panel of 468 diverse kinases (Homo sapiens, UniProt P11309); settings: PIM1; 1000 nM; read-out: Percent Control
# [5] = target: panel of 468 diverse kinases (Homo sapiens, UniProt P54756); settings: EPHA5; 1000 nM; read-out: Percent Control
# [6] = target: panel of 468 diverse kinases (Homo sapiens, UniProt Q00535); settings: CDK5; 1000 nM; read-out: Percent Control
# [7] = target: panel of 468 diverse kinases (Homo sapiens, UniProt Q06418); settings: TYRO3; 1000 nM; read-out: Percent Control
# [8] = target: panel of 468 diverse kinases (Homo sapiens, UniProt Q16816); settings: PHKG1; 1000 nM; read-out: Percent Control
# [9] = target: panel of 468 diverse kinases (Homo sapiens, UniProt Q6ZWH5); settings: NEK10; 1000 nM; read-out: Percent Control
# [10] = target: panel of 468 diverse kinases (Homo sapiens, UniProt Q96J92); settings: WNK4; 1000 nM; read-out: Percent Control
# [11] = target: panel of 468 diverse kinases (Homo sapiens, UniProt Q96SB4); settings: SRPK1; 1000 nM; read-out: Percent Control
# [12] = target: panel of 468 diverse kinases (Homo sapiens, UniProt Q9H3Y6); settings: SRMS; 1000 nM; read-out: Percent Control
# panel of 468 diverse kinases (Homo sapiens, UniProt P10721, A829P), sequence (P10721 26-976 A829P limits assumed): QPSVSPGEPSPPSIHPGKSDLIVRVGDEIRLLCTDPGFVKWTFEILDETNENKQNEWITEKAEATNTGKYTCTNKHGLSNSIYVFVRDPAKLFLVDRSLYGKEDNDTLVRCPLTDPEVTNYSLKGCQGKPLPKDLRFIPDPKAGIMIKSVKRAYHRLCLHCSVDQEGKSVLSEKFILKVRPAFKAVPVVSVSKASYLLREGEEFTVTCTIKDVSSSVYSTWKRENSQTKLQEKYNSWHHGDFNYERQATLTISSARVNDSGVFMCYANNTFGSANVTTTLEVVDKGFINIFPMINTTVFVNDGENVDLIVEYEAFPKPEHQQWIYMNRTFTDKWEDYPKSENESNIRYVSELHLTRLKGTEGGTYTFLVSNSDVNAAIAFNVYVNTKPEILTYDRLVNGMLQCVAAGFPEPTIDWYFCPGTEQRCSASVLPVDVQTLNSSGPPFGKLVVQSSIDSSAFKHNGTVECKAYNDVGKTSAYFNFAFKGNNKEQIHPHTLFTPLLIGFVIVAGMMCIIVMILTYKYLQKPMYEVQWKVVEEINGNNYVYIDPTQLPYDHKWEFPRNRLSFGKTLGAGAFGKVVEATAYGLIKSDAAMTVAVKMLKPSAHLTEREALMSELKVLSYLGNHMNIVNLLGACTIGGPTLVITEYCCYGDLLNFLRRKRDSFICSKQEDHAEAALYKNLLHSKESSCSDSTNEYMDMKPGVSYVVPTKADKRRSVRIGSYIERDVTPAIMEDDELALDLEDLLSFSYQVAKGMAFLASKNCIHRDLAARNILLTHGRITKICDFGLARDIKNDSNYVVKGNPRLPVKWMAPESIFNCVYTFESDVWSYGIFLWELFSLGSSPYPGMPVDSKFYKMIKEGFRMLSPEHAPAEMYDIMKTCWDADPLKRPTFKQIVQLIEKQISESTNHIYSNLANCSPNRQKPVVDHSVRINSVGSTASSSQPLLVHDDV
# panel of 468 diverse kinases (Homo sapiens, UniProt P54756), sequence (P54756 25-1037 limits assumed): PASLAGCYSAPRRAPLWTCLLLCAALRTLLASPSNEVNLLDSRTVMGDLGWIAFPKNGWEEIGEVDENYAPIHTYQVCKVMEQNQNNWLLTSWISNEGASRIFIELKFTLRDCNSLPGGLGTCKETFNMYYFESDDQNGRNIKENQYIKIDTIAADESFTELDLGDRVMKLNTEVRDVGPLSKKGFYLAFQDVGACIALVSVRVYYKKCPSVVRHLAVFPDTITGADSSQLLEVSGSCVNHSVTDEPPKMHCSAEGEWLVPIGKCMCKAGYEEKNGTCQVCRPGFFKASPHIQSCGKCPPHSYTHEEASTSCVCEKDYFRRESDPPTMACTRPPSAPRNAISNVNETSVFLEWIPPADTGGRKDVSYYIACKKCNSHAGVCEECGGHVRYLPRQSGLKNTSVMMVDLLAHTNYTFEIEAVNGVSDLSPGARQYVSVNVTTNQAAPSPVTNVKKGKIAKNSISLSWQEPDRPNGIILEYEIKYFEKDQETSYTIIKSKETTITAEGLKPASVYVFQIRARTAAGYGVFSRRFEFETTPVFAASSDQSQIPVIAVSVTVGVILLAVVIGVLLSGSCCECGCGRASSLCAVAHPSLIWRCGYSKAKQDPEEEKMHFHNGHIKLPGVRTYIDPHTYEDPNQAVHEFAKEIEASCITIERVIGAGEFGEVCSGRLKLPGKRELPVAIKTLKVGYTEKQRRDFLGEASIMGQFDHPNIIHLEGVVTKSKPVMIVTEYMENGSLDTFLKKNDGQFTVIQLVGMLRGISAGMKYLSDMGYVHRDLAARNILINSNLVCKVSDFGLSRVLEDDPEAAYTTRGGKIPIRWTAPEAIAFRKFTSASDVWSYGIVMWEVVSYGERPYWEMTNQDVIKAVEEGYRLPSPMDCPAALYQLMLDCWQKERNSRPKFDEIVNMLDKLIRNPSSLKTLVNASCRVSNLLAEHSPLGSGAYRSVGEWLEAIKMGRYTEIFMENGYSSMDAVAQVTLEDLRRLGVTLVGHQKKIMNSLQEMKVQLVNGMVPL
# panel of 468 diverse kinases (Homo sapiens, UniProt Q06418), sequence (Q06418 41-890 limits assumed): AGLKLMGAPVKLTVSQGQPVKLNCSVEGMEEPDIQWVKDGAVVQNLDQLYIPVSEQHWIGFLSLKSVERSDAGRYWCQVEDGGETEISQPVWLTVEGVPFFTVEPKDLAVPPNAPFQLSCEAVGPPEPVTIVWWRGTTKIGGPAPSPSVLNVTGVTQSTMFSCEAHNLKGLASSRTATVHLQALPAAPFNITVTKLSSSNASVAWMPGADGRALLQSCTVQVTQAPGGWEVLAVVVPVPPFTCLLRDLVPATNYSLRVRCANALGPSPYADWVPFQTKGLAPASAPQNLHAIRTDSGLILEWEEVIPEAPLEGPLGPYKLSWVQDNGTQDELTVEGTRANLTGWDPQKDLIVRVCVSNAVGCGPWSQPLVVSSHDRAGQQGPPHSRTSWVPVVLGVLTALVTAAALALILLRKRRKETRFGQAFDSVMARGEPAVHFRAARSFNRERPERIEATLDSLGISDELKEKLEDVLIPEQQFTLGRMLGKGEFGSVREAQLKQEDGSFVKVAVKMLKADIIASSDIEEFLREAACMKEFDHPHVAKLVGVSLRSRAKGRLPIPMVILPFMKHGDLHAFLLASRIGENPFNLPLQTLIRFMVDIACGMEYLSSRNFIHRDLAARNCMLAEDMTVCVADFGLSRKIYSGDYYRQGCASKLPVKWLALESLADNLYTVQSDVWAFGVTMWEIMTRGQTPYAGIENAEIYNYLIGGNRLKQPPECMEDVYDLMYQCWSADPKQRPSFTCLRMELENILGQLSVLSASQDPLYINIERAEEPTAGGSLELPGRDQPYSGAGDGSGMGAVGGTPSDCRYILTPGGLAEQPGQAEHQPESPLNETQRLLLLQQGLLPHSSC
compound,measurement,setting,value
COc1cc2nc(NC3CC3)nc(NC3CCN(C(C)C)CC3)c2cc1OC [Formula IV],remaining activity at 1 µM,[1],94%
same,remaining activity at 1 µM,[2],93%
same,remaining activity at 1 µM,[3],78%
same,remaining activity at 1 µM,[4],90%
same,remaining activity at 1 µM,[5],86%
same,remaining activity at 1 µM,[6],93%
same,remaining activity at 1 µM,[7],100%
same,remaining activity at 1 µM,[8],90%
same,remaining activity at 1 µM,[9],50%
same,remaining activity at 1 µM,[10],70%
same,remaining activity at 1 µM,[11],97%
same,remaining activity at 1 µM,[12],89%
